The values that follow are results of earlier work, collected in patent publication US6797722B2 (Sigma-Tau Industrie Farmaceutiche Riunite S.p.A., priority 2002, dated 2004).

The conditions of this data set: oral route.

Turning to `CCc1ccccc1-c1n[nH]c(-c2cccc(OC)c2)n1` [ST1959, 3-(2-ethylphenyl)-5-(3-methoxyphenyl)-1H-1,2,4-triazole], the hepatic first-pass effect result was “rapid and extensive hepatic first-pass effect leading to the formation of inactive metabolites”.
